For the test, the system named is Human Cav2.3 channel. The test can be described thus: Human Cav2.3 channel calcium-influx assay. It is filed as cell-based. Conditions: Fluo8 fluorescence, HEK-293 T-Rex/Kir2.1/Cav2.3e cells, without pluronic acid. The protocol:
HEK-293 T-Rex cells were transfected with pcDNA3.1-Kir2.1 to generate a stable cell line. After antibiotic selection, the obtained stable pools were analysed using FLIPR^TETRA (membrane potential assay), and a limiting dilution was performed and a HEK-293 T-Rex/Kir2.1 clone was selected. The clone was transfected with pcDNA3.1-Cav2.3e and pBud-Cav-β4-α2δ1 to generate a stable cell line where the Cav2.3e expression is inducible. After antibiotic selection, functional clone pool analysis and two successive limiting dilutions, the final clone underwent a qPCR analysis and a biophysical and pharmacological validation using patch-clamp.
A compound plate, containing 10 test compounds in eight-points dose response with n=4, was prepared. Test compounds dose response curves were prepared in automated fashion in 100% DMSO at CyBio Felix and starting from a stock solution in 100% DMSO; a defined volume was serially moved into destination wells pre-filled with the desired DMSO volume; stock solution concentration volumes were dependent on the final compounds concentrations to be tested and the final DMSO content used in the assay. For the assay test compounds dose response curves ranged from 30 μM and half log dilution with 0.3% final DMSO. In order to obtain the 8-points dose response curve all the concentrations were created by starting from a 10 mM DMSO stock solution and then moving 9.5 μL into a destination well pre-filled with 20.5 μL of 100% DMSO and repeating this step seven times. This initial step was done into 96 MTP plates, 10 compounds/plate. One 384 MTP was then reformatted to contain all the 10 compounds at 8 concentrations, quadruplicate data points. This so obtained 384 MTP compound plate served as source plate in a “mother to child” process with a CyBi®-Well dispenser in which 0.7 μL of compounds were moved into a destination plate pre-filled with 57.6 μL of Tyrode's buffer 0 mM K+, thus obtaining 4× concentrated compounds solution. In columns 1-2 and 23-24 the control wells were added. Both “source” compound plate and “destination” compound plate were barcoded and a relationship between the two plates was thus generated.
The day before the experiment, cells were detached by gentle wash with DPBS, followed by 5 min incubation at 37° C. with Trypsin solution. Detached cells were diluted with OptiMEM+Doxycycline at 0.2 μg/mL, counted and plated in Poly-D-Lysine coated black/clear bottom (15.000 c/well in 20 μl/well) by the use of a MATRIX WellMate dispenser. Plates were placed into a humidified incubator at 37° C. with 5% CO2 until the experimental day. 24 h after seeding 10 μL/well of 1.5× Fluo8 NW dye solution prepared in Tyrode's buffer 0 mM K* were added on top of the seeding medium. Cell plates were incubated for 40-60 min at RT in the dark. We then Injected off-line 10 μL/well of test compounds and controls 4× concentrated in Tyrode's Buffer 0 mM K+ with the CyBi®-Well instrument. Cell plates were incubated 3 minutes at RT. Finally, we injected 20 μL/well of 3× concentrated activator solution (K20-Na130-Ca2 buffer: 20 mM KCl, 130 mM NaCl, 2 mM CaCl2, 10 mM HEPES, 10 mM Glucose, final concentrations, prepared starting from “K0-Na150-Ca2” and “K150-Na0-Ca2” buffers) at FDSS7000EX instrument and read emitted fluorescence for 130 seconds.
Data analysis was performed with Genedata Screener® software and reported compounds activity as % effect in relation to the normalization standards. The Kinetic Response Value (KRV) is calculated as follows:
KRV=Maximal fluorescence recorded from second 5 to second 130 minus baseline fluorescence, computed as average from second 1 to second 2, of the kinetic trace. The KRV was normalized versus Neutral Controls and Inhibitor Controls in order to obtain the Activity[%] for each well. […] Therefore, the compound activity values were scaled (based on the two references) to a common range (two-point normalization). […]
Regarding `CCN([C@H](c1ccc(F)cc1)C(F)(F)F)S(=O)(=O)c1csc(C#N)c1` (stereo in doubt) [Example 43, 5-Cyano-N-ethyl-N-(2,2,2-trifluoro-1-(4-fluorophenyl)ethyl)thiophene-3-sulfonamide], the “Cav2.3 (pIC50)” value was 6.69.

For the compound `CCN([C@@H](c1ccc(F)cc1)C(F)(F)F)S(=O)(=O)c1csc(C#N)c1` (stereo in doubt) [Example 44, 5-cyano-N-ethyl-N-(2,2,2-trifluoro-1-(4-fluorophenyl)ethyl)thiophene-3-sulfonamide], the “Cav2.3 (pIC50)” value was determined as 5.23.

On to `CCN(C(c1ccc(F)cc1)C(F)(F)F)S(=O)(=O)c1ccc(C#N)s1` (stereo not drawn) [Example 3, 5-cyano-N-ethyl-N-(2,2,2-trifluoro-1-(4-fluorophenyl)ethyl)thiophene-2-sulfonamide], for which the “Cav2.3 (pIC50)” value is reported as 6.31.

For the compound `CN([C@H](c1ccc(F)cc1)C(F)(F)F)S(=O)(=O)c1ccc(C#N)s1` [Example 6, (R)-5-cyano-N-methyl-N-(2,2,2-trifluoro-1-(4-fluorophenyl)ethyl)thiophene-2-sulfonamide], the “Cav2.3 (pIC50)” value came out at 6.22.

In the case of `CN([C@@H](c1ccc(F)cc1)C(F)(F)F)S(=O)(=O)c1ccc(C#N)s1` [Example 7, (S)-5-cyano-N-methyl-N-(2,2,2-trifluoro-1-(4-fluorophenyl)ethyl)thiophene-2-sulfonamide], the “Cav2.3 (pIC50)” value amounted to 5.44.

As to `CCN(C(c1ccc(F)cc1)C(F)(F)F)S(=O)(=O)c1ccc(C)s1` (stereo not drawn) [Example 8, N-ethyl-5-methyl-N-(2,2,2-trifluoro-1-(4-fluorophenyl)ethyl)thiophene-2-sulfonamide], the “Cav2.3 (pIC50)” value is given as 5.53.

As to `CCN([C@H](c1ccc(F)cc1)C(F)(F)F)S(=O)(=O)c1ccc(C)s1` [Example 10, (R)—N-ethyl-5-methyl-N-(2,2,2-trifluoro-1-(4-fluorophenyl)ethyl)thiophene-2-sulfonamide], the “Cav2.3 (pIC50)” value is 5.66.

As to `Cc1ccc(S(=O)(=O)N(C)C(c2ccc(F)cc2)C(F)(F)F)s1` (stereo not drawn) [Example 11, N,5-dimethyl-N-(2,2,2-trifluoro-1-(4-fluorophenyl)ethyl)thiophene-2-sulfonamide], the “Cav2.3 (pIC50)” value was determined as 5.22.

With `Cc1ccc(S(=O)(=O)N(C)[C@@H](c2ccc(F)cc2)C(F)(F)F)s1` [Example 12, (S)—N,5-dimethyl-N-(2,2,2-trifluoro-1-(4-fluorophenyl)ethyl)thiophene-2-sulfonamide], the “Cav2.3 (pIC50)” value is 5.00.

Turning to `CCN(C(c1ccc(F)cc1)C(F)(F)F)S(=O)(=O)c1ccc(F)s1` (stereo not drawn) [Example 14, N-ethyl-5-fluoro-N-(2,2,2-trifluoro-1-(4-fluorophenyl)ethyl)thiophene-2-sulfonamide], the “Cav2.3 (pIC50)” value amounted to 5.64.

Regarding `CCN([C@@H](c1ccc(F)cc1)C(F)(F)F)S(=O)(=O)c1ccc(F)s1` [Example 15, (S)—N-ethyl-5-fluoro-N-(2,2,2-trifluoro-1-(4-fluorophenyl)ethyl)thiophene-2-sulfonamide], the “Cav2.3 (pIC50)” value came to 4.94.

As for `CCN([C@H](c1ccc(F)cc1)C(F)(F)F)S(=O)(=O)c1ccc(F)s1` [Example 16, (R)—N-ethyl-5-fluoro-N-(2,2,2-trifluoro-1-(4-fluorophenyl)ethyl)thiophene-2-sulfonamide], the “Cav2.3 (pIC50)” value came out at 5.78.

For `CN(C(c1ccc(F)cc1)C(F)F)S(=O)(=O)c1ccc(Cl)s1` (stereo not drawn) [Example 23, 5-chloro-N-(2,2-difluoro-1-(4-fluorophenyl)ethyl)-N-methylthiophene-2-sulfonamide], the “Cav2.3 (pIC50)” value amounted to 5.15.

As to `CN(C)C(=O)c1ccc(S(=O)(=O)NC(c2ccc(F)cc2)C(F)(F)F)s1` (stereo not drawn) [Example 24, N,N-dimethyl-5-(N-(2,2,2-trifluoro-1-(4-fluorophenyl)ethyl)sulfamoyl)thiophene-2-carboxamide], the “Cav2.3 (pIC50)” value is reported as 4.89.

As to `CCN(C(c1ccc(F)cc1)C(F)(F)F)S(=O)(=O)c1cncc(C#N)c1` (stereo not drawn) [Example 26, 5-cyano-N-ethyl-N-(2,2,2-trifluoro-1-(4-fluorophenyl)ethyl)pyridine-3-sulfonamide], the “Cav2.3 (pIC50)” value is recorded as 7.49.

For the origin of these results see patent US20250115569A1, “SULFONAMIDE COMPOUNDS FOR THE TREATMENT OF NEUROLOGICAL CONDITIONS” (LARIO THERAPEUTICS LIMITED, priority 2021, published 2025).
